In publication PMC10970644, “Molecular Pharmacology of Gelsemium Alkaloids on Inhibitory Receptors” (International Journal of Molecular Sciences, 2024):
Substitutions are numbered along the chain they refer to. Read-outs that look alike come from different tables or passages of the source.

Legend:
[1] = biological target: T1, α1GlyR F63A (Rattus norvegicus, UniProt P07727, F91A); assay type: cell-based
T1 construct: expressed in transfected cells; host or cells: HEK293 (ATCC CRL-1573)
T1 sequence (P07727 29-457 F91A): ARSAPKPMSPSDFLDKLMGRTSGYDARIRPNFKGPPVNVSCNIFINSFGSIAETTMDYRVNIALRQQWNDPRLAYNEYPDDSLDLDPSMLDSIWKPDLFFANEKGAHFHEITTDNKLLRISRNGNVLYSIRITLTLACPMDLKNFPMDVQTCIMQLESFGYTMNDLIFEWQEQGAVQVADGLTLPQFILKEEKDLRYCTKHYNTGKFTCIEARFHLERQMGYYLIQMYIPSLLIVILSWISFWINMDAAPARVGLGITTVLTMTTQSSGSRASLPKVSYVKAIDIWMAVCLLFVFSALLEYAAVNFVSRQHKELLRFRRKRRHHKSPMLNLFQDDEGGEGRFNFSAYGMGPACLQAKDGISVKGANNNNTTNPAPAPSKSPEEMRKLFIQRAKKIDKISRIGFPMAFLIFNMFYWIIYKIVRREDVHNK
Protocol: (§1) The cells were transfected with plasmids encoding the following proteins: (i). rat GlyR α (1, 2, 3) subunits alone or combined with rat β subunits (Uniprot Accession Numbers: Q546L7, P22771, P20236, P20781); and (ii). rat GABAAR α1 combined with rat β2 and γ2 subunits (Uniprot Accession Numbers: P62813, P63138, P18508). The EGFP expression was used as a marker of successful protein expression. The transfection was performed using Lipofectamine 2000 (Invitrogen, ThermoFisher, Carlsbad, CA, USA) using the fabricant protocol. The plasmids used to express GlyRs and GABAARs have been previously described. To track the successful expression of GlyR β subunits and the GABAA γ2 or β2 subunit, these proteins were subcloned in the pIRES2-EGFP vector. The transfection ratio to obtain β-containing GlyRs was 1:5 of α:β, while the expression of γ2-containing GABAA receptors was 1:2:5 of α:β:γ2 [14, 15]. Chimeric GlyRs were described in a previous report. Site directed mutagenesis was performed by Charm Gene Science Mutagenex LLC. (Cumming, GA, USA). All the constructs were checked by full-length sequencing (SNPSaurus, Eugene, OR, USA).
(§2) In brief, patch electrodes (3–4 MΩ) were pulled from borosilicate glasses in a PC-100 puller (Narishige, Tokyo, Japan); then, they were filled with an intracellular solution, which contained (in mM) 120 CsCl, 8 EGTA, 10 HEPES (pH 7.4), 4 MgCl2, 0.5 GTP, and 2 ATP. The extracellular solution contained (in mM) 140 NaCl, 5.4 KCl, 2.0 CaCl2, 1.0 MgCl2, 10 HEPES (pH 7.4), and 10 glucose. Whole-cell patch-clamp recordings were performed at −60 mV with an Axoclamp 200B (Molecular Devices, Sunnyvale, CA, USA) or with HEKA EPC-10 (HEKA Elektronik GmbH, Reutlingen, Germany) amplifiers. […] Brief (3–5 s) pulses of agonist together with alkaloids were applied to cells. Stock solutions of the alkaloids were prepared in high purity distilled water. Aliquots of these stock solutions were diluted in reservoirs containing extracellular solution. […] The concentration–response curve parameters for the alkaloid inhibition (IC50, nH, and the maximal current inhibition) were obtained from the fitted curve of normalized concentration–response data points to the equation Iagonist = Imax (agonist)nH/((agonist)nH + (EC50)nH). The IC50 curves are best-fit mean ± SE from pooled data. […] The inhibition constant (Ki) was calculated using the Cheng–Prusoff equation (Ki = IC50/((2 + ([Agonist]/EC50)^nH)^1/nH − 1). The concentration of agonist corresponds to the sub-saturating agonist concentration used to obtain the IC50 for each alkaloid on a given GlyR subtype.

[2] = biological target: T2, α1GlyR G160E (Rattus norvegicus, UniProt P07727, G188E); assay type: cell-based
T2 construct: expressed in transfected cells; host or cells: HEK293 (ATCC CRL-1573)
T2 sequence (P07727 29-457 G188E): T1 sequence (P07727 29-457 F91A) with A63F, G160E
Protocol: as §1, §2

[3] = cited from earlier work
[4] = biological target: T3, α3β GlyR (Rattus norvegicus, UniProt P20781+P24524); assay: cell-based; assay type: cell-based
T3 construct: The cells were transfected with plasmids encoding the following proteins; expressed in transfected cells; host or cells: HEK293 (ATCC CRL-1573)
T3 sequence (P24524 34-464): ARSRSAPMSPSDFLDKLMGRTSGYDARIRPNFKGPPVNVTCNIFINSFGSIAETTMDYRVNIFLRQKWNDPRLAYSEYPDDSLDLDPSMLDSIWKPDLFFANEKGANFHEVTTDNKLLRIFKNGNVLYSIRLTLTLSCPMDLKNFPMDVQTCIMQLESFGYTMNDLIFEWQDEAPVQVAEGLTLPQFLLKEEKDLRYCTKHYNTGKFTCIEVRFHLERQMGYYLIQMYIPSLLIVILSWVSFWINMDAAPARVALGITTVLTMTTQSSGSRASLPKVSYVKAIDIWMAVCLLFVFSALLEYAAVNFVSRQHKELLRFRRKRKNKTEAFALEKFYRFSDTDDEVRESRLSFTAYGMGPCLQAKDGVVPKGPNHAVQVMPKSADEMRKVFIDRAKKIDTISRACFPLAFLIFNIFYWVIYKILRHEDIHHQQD
T3 sequence (P20781 23-496): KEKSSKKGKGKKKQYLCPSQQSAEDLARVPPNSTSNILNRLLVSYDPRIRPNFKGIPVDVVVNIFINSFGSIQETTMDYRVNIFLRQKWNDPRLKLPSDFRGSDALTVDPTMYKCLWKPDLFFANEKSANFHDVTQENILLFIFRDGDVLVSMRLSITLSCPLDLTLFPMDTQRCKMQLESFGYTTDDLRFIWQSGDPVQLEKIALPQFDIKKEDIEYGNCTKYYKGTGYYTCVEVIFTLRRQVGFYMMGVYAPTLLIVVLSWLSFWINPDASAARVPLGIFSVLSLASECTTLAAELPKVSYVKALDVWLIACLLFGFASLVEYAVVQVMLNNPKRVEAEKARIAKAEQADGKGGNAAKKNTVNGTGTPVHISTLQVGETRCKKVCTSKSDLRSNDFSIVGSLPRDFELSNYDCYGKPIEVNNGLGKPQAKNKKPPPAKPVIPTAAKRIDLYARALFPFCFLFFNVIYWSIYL
Protocol: as §1
as §2, with “The” for “The inhibition constant (Ki) was calculated using the Cheng–Prusoff equation (Ki = IC50/((2 + ([Agonist]/EC50)^nH)^1/nH − 1). The”

Compound: C=C[C@]12CN(C)[C@@H]3[C@H]4CO[C@H](C[C@H]41)[C@]1(C(=O)Nc4ccccc41)[C@@H]32 [gelsemine]
- alkaloid sensitivity of glycine-evoked currents (in words) ([1]; F63A, gelsemine 10 μM or 200 μM, 2 mM glycine): insensitive
- alkaloid sensitivity of glycine-evoked currents (in words) ([2]; G160E, gelsemine 10 μM or 200 μM, 1 mM glycine): insensitive
- residue in brain tissue after systemic application [3]: detectable in brain tissue after 3 days

Compound: NCC(=O)O [glycine, reference compound]
- EC50 ([4]; read-out: EC50 of agonist): 243 ± 13 µM

Compound: C=C[C@@]12CN(C)[C@H]3C[C@]14C(=Nc1ccccc14)[C@H]1C[C@@H]2[C@@H]3CO1 [koumine]
- IC50 [4]: 20.2 ± 7.7 µM
- nH ([4]; Hill coefficient of inhibition curve): 0.9 ± 0.3
- Ki ([4]; calculated using the Cheng–Prussof equation): 54.1 ± 20 µM
- alkaloid sensitivity of glycine-evoked currents (in words) [1]: not exert detectable effects
- alkaloid sensitivity of glycine-evoked currents (in words) [2]: not exert detectable effects
- residue in brain tissue after systemic application [3]: fully depleted after 1 day
